The subject of experiment [1] is drug susceptible and drug-resistant M. tuberculosis strains. The experiment is classed as cell-based.
The test system of experiment [2] is M. tuberculosis H37Rv. The experiment is classed as cell-based.

As to `O=C(O)CCCCCC1NC(=O)CS1` (stereo not drawn) [acidomycin], the “MICs (range over strains)” value in experiment [1] was in the range of 0.096 to 6.2 µM. Further, in experiment [2], the “fold increase in MIC” value was “two- to three-fold” and the “fold increase of MIC of resistant mutant over WT H37Rv” value is 16 fold.
With `O=C(O)CCCCCC1NC(=O)CS1` (racemic) [(±)-acidomycin, 6-(4-Oxothiazolidin-2-yl)hexanoic acid], in experiment [2], the “agar MIC” value worked out at 12 µM, the “fold increase of MIC of resistant mutant over WT H37Rv” value is given as “approximately 16 fold” and the “frequency of resistance (FOR)” value is “less than or equal to 1 × 10^−8”.
